Consider four molecules from patent US20230013419A1, “ANALOGUES OF 3-(5-METHYL-1,3-THIAZOL-2-YL)-N-{(1R)-1-[2-(TRIFLUORO-METHYL)PYRIMIDIN-5-YL]ETHYL}BENZAMIDE” (Bayer Aktiengesellschaft, priority 2019, published 2023).

In general, solubility refers to the dissolved amount per volume that the medium holds. Read a low solubility as a poorly soluble substance. What is called IC50 is the concentration needed to halve the response being measured.

In brackets after ≈: the same amount, converted by molar mass. Several values for one entry are separate records, joined by “and”; a condition that tells them apart may be missing. Equal entries are not always repeated.

Data set [1] in a line: In vitro metabolic stability in human liver microsomes. Format: in vitro ADME. To be noted: for CLblood: hepatic in vivo blood clearance calculated from half-life in human liver microsomes, 1 μM, well-stirred model; for Fmax: maximal oral bioavailability calculated from human liver microsome clearance; for metabolic stability compared to example 11 of WO2016/091776 A1: human liver microsomes. How it is done:
Examples were tested for its metabolic stability in human liver microsomes. Examples were measured one or more times. When measured more than once, data from metabolic stability assays represent average values or median values calculated utilizing data sets obtained from testing of one or more synthetic batch.
In vitro metabolic stability was determined by incubating a solution of test compounds in dimethylsulfoxide (DMSO) and acetonitrile at 1 μM in a suspension of liver microsomes in 100 mM phosphate buffer, pH7.4 (NaH2PO4×H2O+Na2HPO4×2H2O) and at a protein concentration of 0.5 mg/mL at 37° C. The microsomes were activated by adding a co-factor mix containing 8 mM Glucose-6-Phosphat, 4 mM MgCl2; 0.5 mM NADP and 1 IU/ml G-6-P-Dehydrogenase in phosphate buffer, pH 7.4. The metabolic assay was started shortly afterwards by adding the test compound to the incubation at a final volume of 1 mL. Organic solvent was limited to ≤0.01% dimethylsulfoxide (DMSO) and ≤1% acetonitril. During incubation, the microsomal suspensions were continuously shaken at 580 rpm and aliquots were taken at 2, 8, 16, 30, 45 and 60 min, to which equal volumes of cold methanol were immediately added. Samples were frozen at −20° C. over night, subsequently centrifuged for 15 minutes at 3000 rpm and the supernatant was analyzed with an Agilent 1200 HPLC-system with LCMS/MS detection.
The half-life of a test compound was determined from the concentration-time plot. From the half-life the intrinsic clearances were calculated. Together with the additional parameters liver blood flow, specific liver weight and microsomal protein content the hepatic in vivo blood clearance (CL) and the maximal oral bioavailability (Fmax) were calculated for the different species. The hepatic in vivo blood clearance (CLblood) and the maximal oral bioavailability (Fmax) was calculated using the following formulae: CL′intrinsic [ml/(min*kg)]=kel [1/min]/((mg protein/volume of incubation [ml])*fu,inc)*(mg protein/liver weight [g])*(specific liver weight [g liver/kg body weight]); CLblood well-stirred [L/(h*kg)]=(QH [L/(h*kg)]*fu,blood*CL′intrinsic [L/(h*kg)])/(QH [L/(h*kg)]+fu,blood*CL′intrinsic [L/(h*kg)]); Fmax=1−CLblood/QH and using the following parameter values: QH (Liver blood flow): 1.32 L/h/kg (human), 2.1 L/h/kg (dog), 4.2 L/h/kg (rat); specific liver weight: 21 g/kg (human), 39 g/kg (dog), 32 g/kg (rat); microsomal protein content: 40 mg/g. fu,inc and fu,blood is taken as 1 with fu,inc being the unbound fraction (ie the non-protein bound fraction) in the incubation experiment, and fu,blood being the unbound fraction in blood.

The nature of data set [2]: High throughput aqueous solubility in phosphate buffer pH 6.5. Format: physicochemical. To be noted: for solubility at 24 h: aqueous buffer, kinetic from dmso stock, phosphate buffer pH 6.5, 1% DMSO, 24 hrs at room temperature; for solubility compared to example 11 of WO2016/091776 A1: aqueous, pH 6.5. How it is done:
Examples were tested for its solubility in aqueous media (pH 6.5). Examples were synthesized one or more times in accordance with the above-described protocols. When synthesized more than once, data from solubility assays represent average values or median values calculated utilizing data sets obtained from testing of one or more synthetic batch.
The high throughput screening method to determine aqueous drug solubility is based on Thomas Onofrey and Greg Kazan, Performance and correlation of a 96-well high throughput screening method to determine aqueous drug solubility, Millipore Corporation Application Note, 2003; Lit. No. AN1731EN00.
The assay was run in a 96-well plate format. Each well was filled with an individual compound.
All pipetting steps were performed using a robot platform.
100 μl of a 10 mmolar solution of drug in DMSO were concentrated by vacuum centrifugation and resolved in 10 μl DMSO. 990 μl phosphate buffer pH 6.5 were added. The content of DMSO amounts to 1%. The multititer plate was put on a shaker and mixed for 24 hrs at room temperature. 150 μl of the suspension were transferred to a filtration plate. […] A second microtiter plate with 20 μl of a 10 mM solution of drug in DMSO served for calibration. Two concentrations ([…]) were prepared by dilution in DMSO/water 1:1 and used for calibration. Filtrate and calibration plates were quantified by HPLC-MS/MS.
Chromatographic conditions were as follows:
HPLC column: Ascentis Express C18 4.6×30 mm 2.7 μm
Mobile phase: A: Water/0.05% HCOOH • B: Acetonitrile/0.05% HCOOH • 0 min→95% A 5% B • 0.75 min→5% A 95% B • 2.75 min→5% A 95% B • 2.76 min→95% A 5% B • 3 min→95% A 5% B
The areas of sample- and calibration injections were determined by using mass spectrometry software (AB SCIEX: Discovery Quant 2.1.3. and Analyst 1.6.1). The solubility value was obtained by interpolation from the calibration curve.

The target of the next data set is T1, human P2X3 receptor (Homo sapiens, UniProt P56373).
T1 construct: expressed in transfected cells; host or cells: CHO (Chinese hamster ovary) cells, stably co-transfected with mitochondrial photina
T1 sequence (P56373 1-397): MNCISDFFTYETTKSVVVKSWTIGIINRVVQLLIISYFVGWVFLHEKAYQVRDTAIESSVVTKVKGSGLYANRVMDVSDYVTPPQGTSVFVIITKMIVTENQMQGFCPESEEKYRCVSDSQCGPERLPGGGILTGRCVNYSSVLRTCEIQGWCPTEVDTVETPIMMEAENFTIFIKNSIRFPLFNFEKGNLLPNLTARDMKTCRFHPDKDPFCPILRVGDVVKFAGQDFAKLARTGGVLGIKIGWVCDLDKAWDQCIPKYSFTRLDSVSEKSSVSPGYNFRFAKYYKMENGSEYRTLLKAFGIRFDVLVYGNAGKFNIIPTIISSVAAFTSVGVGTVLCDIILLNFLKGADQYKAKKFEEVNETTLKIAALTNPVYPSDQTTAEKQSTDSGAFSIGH
The data set can be described thus: Cellular in vitro assay for determination of P2X3 receptor activity (CHO cells, photina luminescence, agonist alpha-beta-methylene-ATP). To be noted: antagonist activity at human P2X3 receptors, recombinant CHO cells, alpha-beta-methylene-ATP at EC50; read-out: Target IC50. Format: cell-based. How it is done:
Cellular In Vitro Assay for Determination of P2X3 Receptor Activity
The determination of antagonistic activity at the P2X3 receptor of the compounds of the invention was performed by use of a recombinant cell line. These cell line derives originally from the Chinese hamster ovary (CHO) cell line (Tjio J. H.; Puck T. T., 1958, J. Exp. Med. 108: 259-271). The cell line is stably transfected with the human P2X3 receptor and a calcium-sensitive photoprotein, mitochondrial photina, which, after reconstitution with the cofactor coelenterazine, emits light in dependence of calcium binding [Bovolenta S, Foti M, Lohmer S, Corazza S., J Biomol Screen. 2007 August; 12(5):694-704]. The strength of the photina luminescence signal corresponds to the level of receptor activation upon agonist binding. An inhibitor would decrease the signal depending on its potency and concentration. Bioluminescence was detected using a suitable luminometer [Milligan G, Marshall F, Rees S, Trends in Pharmacological Sciences 17, 235-237 (1996)].
On the day before the assay, the cells are plated out in culture medium (DMEM/F12 (PAN, P04-41451), 10% FCS) in 384-well microtiter plates and kept in a cell incubator (96% humidity, 5% v/v CO2, […]). On the day of the assay medium is replaced by 2 mM Ca-tyrode buffer (20 mM HEPES, 130 mM NaCl, 5 mM KCl, 5 mM NaHCO3, 2 mM MgCl2, pH 7.4) containing 5 μg/ml coelenterazine. Plates are incubated for 3 hours at 37° C. (96% humidity, 5% v/v CO2). After incubation the test substances in various concentrations are placed for 10 minutes in the wells of the microtiter plate before the agonist alpha-beta-methylene-ATP at EC50 concentration is added. The resulting light signal is measured immediately in the luminometer.
The examples were tested in quadruples per plate and mean values were used to determine IC50 values at the human P2X3 receptors and percentage of maximal inhibition.

Consider `Cc1cnc(-c2cc(O[C@@H]3CCOC3)cc(C(=O)N[C@H](C)c3cnc(C(F)(F)F)nc3)c2)s1` [example 11 of WO2016/091776 A1, 3-(5-Methyl-1,3-thiazol-2-yl)-5-[(3R)-tetrahydrofuran-3-yloxy]-N-{(1R)-1-[2-(trifluoro-methyl)pyrimidin-5-yl]ethyl}benzamide, reference compound], for which, in data set [1], the CLblood is 8.67 mL/min/kg and 4.5 mL/min/kg; the Fmax is 61% and 79%. The molecule also yielded a solubility at 24 h in data set [2] of 2.9 µg/mL (≈ 6.06 µM).
Consider `Cc1cnc(-c2cc(O[C@@H](CO)CCO)cc(C(=O)N[C@H](C)c3cnc(C(F)(F)F)nc3)c2)s1` [Example 2, 3-{[(2R)-1,4-dihydroxybutan-2-yl]oxy}-5-(5-methyl-1,3-thiazol-2-yl)-N-{(1R)-1-[2-(trifluoromethyl)pyrimidin-5-yl]ethyl}benzamide], for which, in data set [1], the CLblood is 0.017 mL/min/kg, the “metabolic stability compared to example 11 of WO2016/091776 A1” value is “significantly improved metabolic stability” and the Fmax was 100%. In data set [2], the solubility at 24 h stood at 96.5 µg/mL (≈ 194 µM) and the “solubility compared to example 11 of WO2016/091776 A1” value was “significantly improved solubility”. In addition, the IC50 on human P2X3 receptor was 0.0051 µM.
As for `Cc1cnc(-c2cc(O[C@@H](CO)CC(=O)O)cc(C(=O)N[C@H](C)c3cnc(C(F)(F)F)nc3)c2)s1` [Example 3, (3R)-4-hydroxy-3-[3-(5-methyl-1,3-thiazol-2-yl)-5-({(1R)-1-[2-(trifluoromethyl)-pyrimidin-5-yl]ethyl}carbamoyl)phenoxy]butanoic acid], in data set [1], the CLblood is 0.017 mL/min/kg, the “metabolic stability compared to example 11 of WO2016/091776 A1” value is reported as “significantly improved metabolic stability” and the Fmax is given as 100%. For the same molecule, in data set [2], the solubility at 24 h is 1190 µg/mL (≈ 2330 µM) and the “solubility compared to example 11 of WO2016/091776 A1” value is given as “significantly improved solubility”. In addition, the IC50 at human P2X3 receptor came out at 0.012 µM.
Turning to “{[(3R,5R)-5-Hydroxytetrahydrofuran-3-yl]oxy}-5-(5-methyl-1,3-thiazol-2-yl)-N-{(1R)-1-[2-(trifluoromethyl)pyrimidin-5-yl]ethyl}benzamide and {[(3R,5S)-5-hydroxytetrahydrofuran-3-yl]oxy}-5-(5-methyl-1,3-thiazol-2-yl)-N-{(1R)-1-[2-(trifluoromethyl)pyrimidin-5-yl]ethyl}benzamide [Example 1]”, in data set [1], the CLblood is 14.5 mL/min/kg and the Fmax is reported as 34%. The IC50 at human P2X3 receptor stood at 0.02 µM.
